Laboratory results reported in patent US20250270190A1, “KIT INHIBITORS” (BLUEPRINT MEDICINES CORPORATION, priority 2022, published 2025).
Structures can show the parent of a compound that is named as a salt.

Target: T1, c-kit autophosphorylation (Phospho c-Kit Tyr721) in HMC 1.1 (exon 11/13) cells, V654A (Homo sapiens, UniProt P10721, V560G/V654A)
T1 construct: endogenous in cells; host or cells: HMC 1.1 (exon 11/13) cells
Experiment: pKIT Meso Scale Discovery (MSD) assay, inhibition of autophosphorylation of KIT, HMC1.1_V654A
Assay type: cell-based
Conditions: Table 1, cell line not named for Table 1, b1056 names pKIT HMC1.1_V654A, read-out: Code (IC50 for inhibition of autophosphorylation of KIT, pKIT MSD assay)
Outline: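 HMC1.1 cells were serum-starved for 4 h in serum-free, iron-free, phenol red-free IMDM, then treated with compound in dose-response for 90 min at 37 °C. Staurosporine and DMSO served as controls. Lysates were analysed by MSD electrochemiluminescence immunoassay for phospho-c-Kit Tyr721, and % inhibition of autophosphorylation was derived.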

T1 sequence (P10721 26-976 V560G/V654A): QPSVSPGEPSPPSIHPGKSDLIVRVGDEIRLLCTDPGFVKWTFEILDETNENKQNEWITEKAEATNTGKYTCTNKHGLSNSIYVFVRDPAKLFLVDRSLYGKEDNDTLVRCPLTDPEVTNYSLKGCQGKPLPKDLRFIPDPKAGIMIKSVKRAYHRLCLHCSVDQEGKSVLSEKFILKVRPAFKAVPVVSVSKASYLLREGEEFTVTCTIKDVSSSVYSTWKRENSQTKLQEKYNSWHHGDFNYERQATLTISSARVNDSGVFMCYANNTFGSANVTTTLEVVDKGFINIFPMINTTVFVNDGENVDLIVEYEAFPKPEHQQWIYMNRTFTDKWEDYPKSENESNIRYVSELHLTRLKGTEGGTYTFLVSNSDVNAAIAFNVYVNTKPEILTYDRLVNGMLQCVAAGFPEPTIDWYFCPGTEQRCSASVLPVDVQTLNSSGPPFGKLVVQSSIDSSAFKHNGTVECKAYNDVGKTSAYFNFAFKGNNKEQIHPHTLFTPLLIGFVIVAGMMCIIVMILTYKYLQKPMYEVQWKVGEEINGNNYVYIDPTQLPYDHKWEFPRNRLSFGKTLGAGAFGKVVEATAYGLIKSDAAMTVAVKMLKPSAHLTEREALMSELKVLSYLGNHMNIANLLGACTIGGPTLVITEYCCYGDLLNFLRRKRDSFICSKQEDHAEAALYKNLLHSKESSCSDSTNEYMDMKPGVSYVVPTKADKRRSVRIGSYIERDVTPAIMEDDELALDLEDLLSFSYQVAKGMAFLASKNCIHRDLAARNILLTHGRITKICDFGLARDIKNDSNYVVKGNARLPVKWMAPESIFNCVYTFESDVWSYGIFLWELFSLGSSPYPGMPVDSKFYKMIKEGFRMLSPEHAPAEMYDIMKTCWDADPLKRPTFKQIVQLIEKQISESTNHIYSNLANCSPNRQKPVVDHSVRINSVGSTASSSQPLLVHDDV

Compound | IC50 [nM]
Nc1cc(Nc2cc(NC3CC3)c(C(=O)NCc3ncco3)cn2)nc(C(F)F)n1 [Compound 135, 6-((6-amino-2-(difluoromethyl)pyrimidin-4-yl)amino)-4-(cyclopropylamino)-N-(oxazol-2-ylmethyl)nicotinamide] | < 10
Cn1cc(-c2cnc(Nc3cc(N)nc(C(F)F)n3)cc2OC2CC2)cn1 [Compound 53, N4-(4-cyclopropoxy-5-(1-methyl-1H-pyrazol-4-yl)pyridin-2-yl)-2-(difluoromethyl)pyrimidine-4,6-diamine] | < 10
CCNC(=O)c1cnc(Nc2cc(N)nc(C(F)F)n2)cc1NCC [Compound 30, 6-((6-amino-2-(difluoromethyl)pyrimidin-4-yl)amino)-N-ethyl-4-(ethylamino)nicotinamide] | 10 to 40
Cn1cc(-c2cnc(Nc3cc(N)nc(C(F)F)n3)cc2OCC2CCO2)cn1 (stereo not shown) [Compound 105, 2-(difluoromethyl)-N4-(5-(1-methyl-1H-pyrazol-4-yl)-4-(oxetan-2-ylmethoxy)pyridin-2-yl)pyrimidine-4,6-diamine] | 10 to 40
COc1cc(Nc2cc(N)nc(C(F)F)n2)ncc1-c1cnn(C2COC2)c1 [Compound 78, 2-(difluoromethyl)-N4-(4-methoxy-5-(1-(oxetan-3-yl)-1H-pyrazol-4-yl)pyridin-2-yl)pyrimidine-4,6-diamine] | < 10
Cn1cc(-c2cnc(Nc3cc(N)nc(C(F)F)n3)cc2OC2COC2)cn1 [Compound 77, 2-(difluoromethyl)-N4-(5-(1-methyl-1H-pyrazol-4-yl)-4-(oxetan-3-yloxy)pyridin-2-yl)pyrimidine-4,6-diamine] | < 10
COc1cc(Nc2cc(N)nc(C(F)F)n2)ncc1-c1cnn(C2CNC2)c1 [Compound 76, N4-(5-(1-(azetidin-3-yl)-1H-pyrazol-4-yl)-4-methoxypyridin-2-yl)-2-(difluoromethyl)pyrimidine-4,6-diamine formate] | > 40
CC(C)Nc1cc(Nc2cc(N)nc(C(F)F)n2)ncc1C(=O)NC1CC1 [Compound 60, 6-((6-amino-2-(difluoromethyl)pyrimidin-4-yl)amino)-N-cyclopropyl-4-(isopropylamino)nicotinamide trifluoroacetate] | < 10
CC(C)Oc1cc(Nc2cc(N)nc(CF)n2)ncc1-c1cnn(C)c1 [Compound 33, 2-(fluoromethyl)-N4-(4-isopropoxy-5-(1-methyl-1H-pyrazol-4-yl)pyridin-2-yl)pyrimidine-4,6-diamine] | < 10
Nc1cc(Nc2cc(OC3CC3)c(-c3cnn(CCN4CCC4)c3)cn2)nc(C(F)F)n1 [Compound 182, N4-(5-(1-(2-(azetidin-1-yl)ethyl)-1H-pyrazol-4-yl)-4-cyclopropoxypyridin-2-yl)-2-(difluoromethyl)pyrimidine-4,6-diamine] | < 10
CNC(=O)c1cnc(Nc2cc(N)nc(CF)n2)cc1NC(C)CF (single isomer, unassigned) [Compound 28, (R)-6-((6-amino-2-(fluoromethyl)pyrimidin-4-yl)amino)-4-((1-fluoropropan-2-yl)amino)-N-methylnicotinamide or (S)-6-((6-amino-2-(fluoromethyl)pyrimidin-4-yl)amino)-4-((1-fluoropropan-2-yl)amino)-N-methylnicotinamide] | > 40
CCNc1cc(Nc2cc(N)nc(C(F)F)n2)ncc1C(=O)NC1CC1 [Compound 39, 6-((6-amino-2-(difluoromethyl)pyrimidin-4-yl)amino)-N-cyclopropyl-4-(ethylamino)nicotinamide] | < 10
CNC(=O)c1cnc(Nc2cc(N)nc(C(F)F)n2)cc1NC [Compound 4, 6-((6-amino-2-(difluoromethyl)pyrimidin-4-yl)amino)-N-methyl-4-(methylamino)nicotinamide] | < 10
